Several values for one entry are separate records, joined by “and”; a condition that tells them apart may be missing. Identical values can stand only once. Inconclusive results and toxic doses are left out.
Tested on: L1210 leukemia ip in BDF1 mice, survival T/C
Assay: NCI In Vivo Anticancer Drug Screen. Data for tumor model L1210 Leukemia (intraperitoneal) in B6D2F1 (BDF1) mice
Conditions: endpoint: mean survival time, higher = longer survival
Method in brief: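 Survival endpoint. Drug-treated group vs vehicle group, expressed as T divided by C. Tumor passaged by transplantation.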

[1] = dose: 100.0 mg/kg/injection, schedule: Q04DX002 (ip), vehicle: saline with Tween-80
[2] = dose: 200.0 mg/kg/injection, schedule: Q04DX002 (ip), vehicle: saline with Tween-80
[3] = dose: 400.0 mg/kg/injection, schedule: Q04DX002 (ip), vehicle: saline with Tween-80
[4] = dose: 100.0 mg/kg/injection, schedule: Q04DX002 (ip), vehicle: Klucel (hydroxypropylcellulose) (HPC)
[5] = dose: 200.0 mg/kg/injection, schedule: Q04DX002 (ip), vehicle: Klucel (hydroxypropylcellulose) (HPC)
[6] = dose: 400.0 mg/kg/injection, schedule: Q04DX002 (ip), vehicle: Klucel (hydroxypropylcellulose) (HPC)
[7] = dose: 25.0 mg/kg/injection, schedule: Q04DX002 (ip), vehicle: Klucel (hydroxypropylcellulose) (HPC)
[8] = dose: 50.0 mg/kg/injection, schedule: Q04DX002 (ip), vehicle: Klucel (hydroxypropylcellulose) (HPC)
[9] = dose: 100.0 mg/kg/injection, schedule: Q01DX009 (ip), vehicle: Klucel (hydroxypropylcellulose) (HPC)

CN(Cc1cnc2nc(N)nc(N)c2n1)c1ccc(C(=O)NC(CCC(=O)O)C(=O)O)c2ccccc12 (stereo unspecified)
T/C (dose: 2.0 mg/kg/injection, schedule: Q01DX009 (ip), vehicle: saline): 159 % of control
T/C (dose: 2.0 mg/kg/injection, schedule: Q04DX003 (ip), vehicle: saline): 120 % of control
T/C (dose: 4.0 mg/kg/injection, schedule: Q01DX009 (ip), vehicle: saline): 152 % of control and 172 % of control
T/C (dose: 4.0 mg/kg/injection, schedule: Q04DX003 (ip), vehicle: saline): 122 % of control
T/C (dose: 8.0 mg/kg/injection, schedule: Q01DX009 (ip), vehicle: saline): 156 % of control and 160 % of control
T/C (dose: 8.0 mg/kg/injection, schedule: Q04DX003 (ip), vehicle: saline): 106 % of control
T/C (dose: 13.0 mg/kg/injection, schedule: Q01DX009 (ip), vehicle: saline): 123 % of control
T/C (dose: 64.0 mg/kg/injection, schedule: Q04DX003 (ip), vehicle: saline): 115 % of control
T/C (dose: 128.0 mg/kg/injection, schedule: Q04DX003 (ip), vehicle: saline): 101 % of control

O=S(=O)(O)c1ccc(-c2ccc([As](=O)(O)O)cc2)cc1
T/C [1]: 95 % of control
T/C [2]: 103 % of control
T/C [3]: 87 % of control

CCCCCCCC(=O)Oc1ccc([N+](=O)[O-])cc1
T/C (dose: 75.0 mg/kg/injection, schedule: Q01DX001 (ip), vehicle: saline): 100 % of control
T/C (dose: 150.0 mg/kg/injection, schedule: Q01DX001 (ip), vehicle: saline): 109 % of control
T/C (dose: 300.0 mg/kg/injection, schedule: Q01DX001 (ip), vehicle: saline): 95 % of control

O=S1(=O)C=CC1
T/C (dose: 50.0 mg/kg/injection, schedule: Q01DX001 (ip), vehicle: saline): 115 % of control

CC(=O)C1=CC2(OC3CCC(O)(C(=O)CO)C(C)O3)C(=O)c3c(cc4cccc(O)c4c3O)CC2C(O)C1O (stereo unspecified)
T/C (dose: 3.12 mg/kg/injection, schedule: Q01DX001 (ip), vehicle: carboxymethylcellulose (CMC)): 114 % of control
T/C (dose: 6.25 mg/kg/injection, schedule: Q01DX001 (ip), vehicle: carboxymethylcellulose (CMC)): 100 % of control
T/C (dose: 12.5 mg/kg/injection, schedule: Q01DX001 (ip), vehicle: carboxymethylcellulose (CMC)): 104 % of control
T/C (dose: 25.0 mg/kg/injection, schedule: Q01DX001 (ip), vehicle: carboxymethylcellulose (CMC)): 106 % of control
T/C (dose: 50.0 mg/kg/injection, schedule: Q01DX001 (ip), vehicle: carboxymethylcellulose (CMC)): 115 % of control
T/C (dose: 50.0 mg/kg/injection, schedule: Q01DX015 (ip), vehicle: carboxymethylcellulose (CMC)): 102 % of control
T/C (dose: 100.0 mg/kg/injection, schedule: Q01DX001 (ip), vehicle: carboxymethylcellulose (CMC)): 111 % of control
T/C (dose: 100.0 mg/kg/injection, schedule: Q01DX015 (ip), vehicle: carboxymethylcellulose (CMC)): 102 % of control
T/C (dose: 200.0 mg/kg/injection, schedule: Q01DX001 (ip), vehicle: carboxymethylcellulose (CMC)): 100 % of control
T/C (dose: 200.0 mg/kg/injection, schedule: Q01DX015 (ip), vehicle: carboxymethylcellulose (CMC)): 93 % of control
T/C (dose: 400.0 mg/kg/injection, schedule: Q01DX001 (ip), vehicle: carboxymethylcellulose (CMC)): 97 % of control
T/C (dose: 400.0 mg/kg/injection, schedule: Q01DX015 (ip), vehicle: carboxymethylcellulose (CMC)): 93 % of control

ClC(CCC(Cl)c1ccccc1)c1ccccc1 (stereo unspecified)
T/C [4]: 101 % of control
T/C [5]: 104 % of control
T/C [6]: 101 % of control

Clc1ccccc1C(c1ccc(I)cc1)C(Cl)Cl (stereo unspecified)
T/C (dose: 100.0 mg/kg/injection, schedule: Q01DX001 (ip), vehicle: saline): 101 % of control
T/C (dose: 200.0 mg/kg/injection, schedule: Q01DX001 (ip), vehicle: saline): 93 % of control
T/C (dose: 400.0 mg/kg/injection, schedule: Q01DX001 (ip), vehicle: saline): 104 % of control

Nc1ccc(C(=O)Nc2ccc(N(CCCl)CCCl)cc2)cc1
T/C (dose: 12.5 mg/kg/injection, schedule: Q01DX009 (ip), vehicle: saline): 117 % of control
T/C (dose: 25.0 mg/kg/injection, schedule: Q01DX009 (ip), vehicle: saline): 98 % of control and 114 % of control
T/C (dose: 50.0 mg/kg/injection, schedule: Q01DX009 (ip), vehicle: saline): 120 % of control
T/C (dose: 50.0 mg/kg/injection, schedule: Q04DX003 (ip), vehicle: saline): 115 % of control
T/C (dose: 100.0 mg/kg/injection, schedule: Q01DX009 (ip), vehicle: saline): 114 % of control
T/C (dose: 100.0 mg/kg/injection, schedule: Q04DX003 (ip), vehicle: saline): 118 % of control
T/C (dose: 200.0 mg/kg/injection, schedule: Q04DX003 (ip), vehicle: saline): 97 % of control

Clc1ccc(SCSc2nc3ccccc3s2)cc1
T/C [7]: 105 % of control
T/C [8]: 86 % of control
T/C [4]: 93 % of control

Cc1scc[n+]1Cc1ccccc1[N+](=O)[O-]
T/C (dose: 5.0 mg/kg/injection, schedule: Q01DX001 (ip), vehicle: saline): 109 % of control
T/C (dose: 10.0 mg/kg/injection, schedule: Q01DX001 (ip), vehicle: saline): 109 % of control
T/C (dose: 20.0 mg/kg/injection, schedule: Q01DX001 (ip), vehicle: saline): 105 % of control
T/C (dose: 40.0 mg/kg/injection, schedule: Q01DX001 (ip), vehicle: saline): 109 % of control
T/C (dose: 80.0 mg/kg/injection, schedule: Q01DX001 (ip), vehicle: saline): 100 % of control

CC(=O)NC1CCc2ccccc2-c2cccc(=O)cc21 (stereo unspecified)
T/C (dose: 0.1 mg/kg/injection, schedule: Q01DX009 (ip), vehicle: Klucel (hydroxypropylcellulose) (HPC)): 108 % of control
T/C (dose: 0.2 mg/kg/injection, schedule: Q01DX009 (ip), vehicle: Klucel (hydroxypropylcellulose) (HPC)): 113 % of control and 124 % of control
T/C (dose: 0.39 mg/kg/injection, schedule: Q01DX009 (ip), vehicle: Klucel (hydroxypropylcellulose) (HPC)): 118 % of control
T/C (dose: 0.78 mg/kg/injection, schedule: Q01DX009 (ip), vehicle: Klucel (hydroxypropylcellulose) (HPC)): 86 % of control
T/C (dose: 0.78 mg/kg/injection, schedule: Q01DX009 (ip), vehicle: saline): 116 % of control

CC(C)n1cnc2nc[nH]c2c1=S
T/C (dose: 25.0 mg/kg/injection, schedule: Q01DX001 (ip), vehicle: Klucel (hydroxypropylcellulose) (HPC)): 91 % of control
T/C (dose: 25.0 mg/kg/injection, schedule: Q04DX003 (ip), vehicle: Klucel (hydroxypropylcellulose) (HPC)): 95 % of control
T/C (dose: 50.0 mg/kg/injection, schedule: Q01DX001 (ip), vehicle: Klucel (hydroxypropylcellulose) (HPC)): 95 % of control
T/C (dose: 50.0 mg/kg/injection, schedule: Q04DX003 (ip), vehicle: Klucel (hydroxypropylcellulose) (HPC)): 102 % of control
T/C (dose: 100.0 mg/kg/injection, schedule: Q01DX001 (ip), vehicle: Klucel (hydroxypropylcellulose) (HPC)): 98 % of control
T/C (dose: 100.0 mg/kg/injection, schedule: Q04DX003 (ip), vehicle: Klucel (hydroxypropylcellulose) (HPC)): 92 % of control

Cc1cc(O)ccc1C1=NCC(C)S1 (stereo unspecified)
T/C (dose: 100.0 mg/kg/injection, schedule: Q01DX005 (ip), vehicle: Klucel (hydroxypropylcellulose) (HPC)): 87 % of control
T/C [9]: 98 % of control
T/C [4]: 100 % of control
T/C (dose: 200.0 mg/kg/injection, schedule: Q01DX005 (ip), vehicle: Klucel (hydroxypropylcellulose) (HPC)): 101 % of control
T/C (dose: 200.0 mg/kg/injection, schedule: Q01DX009 (ip), vehicle: Klucel (hydroxypropylcellulose) (HPC)): 109 % of control
T/C [5]: 100 % of control
T/C (dose: 400.0 mg/kg/injection, schedule: Q01DX005 (ip), vehicle: Klucel (hydroxypropylcellulose) (HPC)): 90 % of control
T/C (dose: 400.0 mg/kg/injection, schedule: Q01DX009 (ip), vehicle: Klucel (hydroxypropylcellulose) (HPC)): 95 % of control
T/C [6]: 107 % of control

CC1(C)CC(=O)C2=C(C1)Nc1ccc(Cl)cc1NC2c1ccccc1 (stereo unspecified)
T/C [7]: 92 % of control
T/C [8]: 106 % of control
T/C [4]: 92 % of control
T/C [5]: 103 % of control and 113 % of control
T/C [6]: 106 % of control

ClCc1noc(-c2ccccc2)n1
T/C [1]: 98 % of control
T/C [2]: 95 % of control
T/C [3]: 101 % of control

Cc1cc(C)c(F)[c]([Hg][Br])c1N
T/C (dose: 12.5 mg/kg/injection, schedule: Q01DX009 (ip), vehicle: Klucel (hydroxypropylcellulose) (HPC)): 96 % of control
T/C (dose: 37.5 mg/kg/injection, schedule: Q01DX001 (ip), vehicle: Klucel (hydroxypropylcellulose) (HPC)): 94 % of control
T/C (dose: 50.0 mg/kg/injection, schedule: Q01DX009 (ip), vehicle: Klucel (hydroxypropylcellulose) (HPC)): 96 % of control
T/C [9]: 89 % of control
